We go through four molecules from patent publication US20120009674A1, “Use of a GSK-3 Inhibitor to Maintain Potency of Cultured Cells” (ABT Holding Company, priority 2005, published 2012).

The test system of series [1] is mouse embryonic stem (ES) cell. The note with it: mouse ES cells; Oct-3a, Rex-1 and Nanog expression; cited from earlier work.
The next series has as its system Oct-3A. As to the kind of experiment: Western blot of Oct-3A protein in BIO treated MAPCs. In kind it is cell-based, human. The following applies: BIO treated vs untreated MAPCs from the same donor, FIG. 3. (Immunoblotting shows a protein as a band on a membrane.)
The subject of series [2] is human embryonic stem (ES) cell. The following applies: human ES cells; Oct-3a, Rex-1 and Nanog expression; cited from earlier work.
Series [3] can be described thus: Stability of BIO in culture, expansion media without cells (mass spectroscopy). Format: physicochemical. The following applies: absence of cells, 72-hour period, 1 μM BIO, 37° C., 18% O2, 5% CO2, expansion media.
The next series has as its target CDK2-cyclin A (Homo sapiens, UniProt P24941). The following applies: at 10 μM; cited from earlier work.
Series [4] concerns mouse mesodermal stem cell line. The note with it: Chen, S., et al. (2003); cited from earlier work.

On to `O=C1Nc2cc(Br)ccc2/C1=C1/Nc2ccccc2/C1=N\O` [BIO, 6-bromoindirubin-3′-oxime], for which the “maintenance of ES cultures in an undifferentiated pluripotent state” value in series [1] and in series [2] was “able to substitute for the addition of feeder cultures or addition of exogenous cytokines in maintaining the ES cultures in an undifferentiated pluripotent state” in each case. Also, the “Oct-3A protein level (Western blot)” value in the series with Oct-3A is “increases or protects the amount of detectable Oct-3A”. Moreover, the “BIO stable (native BIO remaining)” value in series [3] was “approximately 95%”.

As to `CN(C)CCC(=O)Nc1n[nH]c2nnc(-c3ccccc3)cc12` [Pyrazolopyridine 9], the “Inhibits CDK2-cyclin A” value at CDK2-cyclin A is given as “A (90% at 10 μM)”.

With `CCCC(=O)Nc1n[nH]c2ncc(-c3ccccc3F)cc12` [Pyrazolopyridine 18], the “Inhibits CDK2-cyclin A” value at CDK2-cyclin A is “A (95% at 10 μM)”.

As for `c1nc2nc(Nc3ccc(N4CCOCC4)cc3)nc(NC3CCCCC3)c2[nH]1` [reversine], the “de-differentiation of committed myoblast” value in series [4] was “acted to “de-differentiate” the cell line from a committed myoblast, back to the multipotent precursor”.
